From publication doi:10.1101/2023.03.31.535182v2 (biorxiv, 2023)

Tested on: MsGH13
Experiment: UV/Vis release of 4-nitrophenolate at […] nm
Type: biochemical, Marinovum sp.
Settings: 50 mM citric acid/phosphate, 150 mM NaCl, pH 6.5, 25 °C

- Km: 950 ± 470 µM
SMILES: O=[N+]([O-])c1ccc(O[C@H]2O[C@H](CO)[C@@H](O)[C@H](O)[C@H]2O)cc1 [PNPGlc]
